pIC50: −log10 of the molar value. Like-named read-outs stand apart in the source and are kept apart here.
How the values were obtained:
[1] = type: physicochemical
Procedure: (§1) The compound of formula (I) (0.5 g, 1.04 mmol) (prepared according to Example 1) and the compound of formula (I) (0.5 g, 1.04 mmol) (prepared according to Example 11) were added to a 25 mL one-necked flask, followed by addition of 4.0 mL of ethyl acetate-isopropyl ether (v:v=1:1). The mixture was pulped at room temperature, then filtered and dried to obtain a solid (872 mg, yield: 87.2%).
as §1, with “12)” for “11)”, “(850” for “(872”, “85.0%).” for “87.2%).”

[2] = system: AIPC; conditions: human; cited from earlier work
[3] = system: AIPC; conditions: mouse; cited from earlier work
[4] = type: physicochemical; remark: listed apart in the source
[5] = type: physicochemical; remark: listed apart in the source
Procedure: Samplings were carried out on Day 5 and Day 10.

[6] = type: physicochemical; conditions: for Crystal form / Purity: 25° C., RH 60%
Procedure: The sample was placed under conditions of 25° C., RH 60% for a long period of time, and regular sampling was carried out to determine the purity.

[7] = mouse, in vivo; cited from earlier work
[8] = biological target: T1, AR (Homo sapiens, UniProt P10275); conditions: compared with MDV-3100; cited from earlier work
T1 sequence (P10275 1-920): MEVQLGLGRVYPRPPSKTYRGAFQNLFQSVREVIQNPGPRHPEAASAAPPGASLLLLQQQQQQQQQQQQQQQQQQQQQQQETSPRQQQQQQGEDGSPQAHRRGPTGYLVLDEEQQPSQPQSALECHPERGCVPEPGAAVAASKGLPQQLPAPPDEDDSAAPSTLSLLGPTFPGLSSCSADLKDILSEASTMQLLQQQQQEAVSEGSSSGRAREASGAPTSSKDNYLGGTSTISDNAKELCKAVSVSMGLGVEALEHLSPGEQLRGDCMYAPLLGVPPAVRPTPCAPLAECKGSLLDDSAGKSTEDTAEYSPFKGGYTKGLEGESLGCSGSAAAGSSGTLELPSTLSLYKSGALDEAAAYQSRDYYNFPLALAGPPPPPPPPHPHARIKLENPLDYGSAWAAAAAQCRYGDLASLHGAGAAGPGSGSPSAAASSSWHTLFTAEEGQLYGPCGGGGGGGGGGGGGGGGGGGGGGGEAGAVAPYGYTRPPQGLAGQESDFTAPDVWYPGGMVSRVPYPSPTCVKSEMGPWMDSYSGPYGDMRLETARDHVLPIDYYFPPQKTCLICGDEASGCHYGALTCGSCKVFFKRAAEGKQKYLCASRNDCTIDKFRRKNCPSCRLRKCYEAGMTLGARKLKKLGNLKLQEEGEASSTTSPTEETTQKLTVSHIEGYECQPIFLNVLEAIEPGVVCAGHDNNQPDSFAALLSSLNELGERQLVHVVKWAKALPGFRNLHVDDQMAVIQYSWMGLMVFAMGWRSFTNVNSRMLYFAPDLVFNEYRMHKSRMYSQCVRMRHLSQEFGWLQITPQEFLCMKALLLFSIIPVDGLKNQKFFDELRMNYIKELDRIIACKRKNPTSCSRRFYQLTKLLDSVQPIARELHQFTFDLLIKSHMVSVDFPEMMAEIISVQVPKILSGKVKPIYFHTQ

[9] = biological target: T1, AR; conditions: cited from earlier work
[10] = system: five major subtypes of CYP450; conditions: cited from earlier work
[11] = rat; cited from earlier work
[12] = biological target: hERG (Homo sapiens, UniProt Q12809); conditions: cited from earlier work
[13] = dog; cited from earlier work

Chain of hERG (Q12809 whole entry): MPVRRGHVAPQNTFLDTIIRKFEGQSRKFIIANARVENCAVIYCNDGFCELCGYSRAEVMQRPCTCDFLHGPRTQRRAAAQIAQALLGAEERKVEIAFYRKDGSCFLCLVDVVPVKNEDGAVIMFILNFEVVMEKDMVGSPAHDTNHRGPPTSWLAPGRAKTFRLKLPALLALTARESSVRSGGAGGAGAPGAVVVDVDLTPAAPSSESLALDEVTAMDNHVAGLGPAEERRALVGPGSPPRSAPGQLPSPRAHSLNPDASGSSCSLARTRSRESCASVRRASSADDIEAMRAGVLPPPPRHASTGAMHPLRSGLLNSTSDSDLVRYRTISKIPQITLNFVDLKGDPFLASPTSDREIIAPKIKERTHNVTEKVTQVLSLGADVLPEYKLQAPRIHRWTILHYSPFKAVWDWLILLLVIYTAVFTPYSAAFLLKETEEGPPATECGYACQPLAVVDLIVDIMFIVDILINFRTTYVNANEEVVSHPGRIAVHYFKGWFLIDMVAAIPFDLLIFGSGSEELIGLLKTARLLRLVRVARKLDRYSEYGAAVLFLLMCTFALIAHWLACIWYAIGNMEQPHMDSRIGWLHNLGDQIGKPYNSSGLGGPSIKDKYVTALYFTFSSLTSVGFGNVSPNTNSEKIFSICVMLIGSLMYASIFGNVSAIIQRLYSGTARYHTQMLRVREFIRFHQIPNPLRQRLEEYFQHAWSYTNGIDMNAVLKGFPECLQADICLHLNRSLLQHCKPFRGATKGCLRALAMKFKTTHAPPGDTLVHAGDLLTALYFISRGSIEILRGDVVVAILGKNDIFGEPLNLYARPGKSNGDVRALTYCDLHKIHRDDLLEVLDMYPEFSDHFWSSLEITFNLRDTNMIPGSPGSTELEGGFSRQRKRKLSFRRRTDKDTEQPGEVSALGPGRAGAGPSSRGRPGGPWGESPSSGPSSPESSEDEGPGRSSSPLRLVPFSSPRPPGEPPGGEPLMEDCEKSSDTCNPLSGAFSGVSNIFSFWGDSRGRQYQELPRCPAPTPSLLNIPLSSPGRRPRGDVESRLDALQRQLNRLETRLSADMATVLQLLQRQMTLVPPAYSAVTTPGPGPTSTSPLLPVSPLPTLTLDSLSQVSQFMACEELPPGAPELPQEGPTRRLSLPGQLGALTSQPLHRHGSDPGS

## CC1(C)C(=O)N(c2ccc(C#N)c(C(F)(F)F)c2)C(=S)N1c1ccc(OC[C@@H](O)CO)cc1 [crystal form III]
[1]; pulped with crystal form I in ethyl acetate-isopropyl ether (v:v=1:1) at room temperature
  crystal form transformation: can be transformed into crystal form I

## CNC(=O)c1ccc(N2C(=S)N(c3ccc(C#N)c(C(F)(F)F)c3)C(=O)C2(C)C)cc1F [MDV-3100]
[2]
  inhibition of growth of AIPC: can inhibit the growth of AIPC
[3]
  inhibition of growth of AIPC: can inhibit the growth of AIPC

## CC1(C)C(=O)N(c2ccc(C#N)c(C(F)(F)F)c2)C(=S)N1c1ccc(OC[C@@H](O)CO)cc1 [Crystal form I, (S)-4-(3-(4-(2,3-dihydroxypropoxy)phenyl)-4,4-dimethyl-5-carbonyl-2-thioimidazolin-1-yl)-2-(trifluoromethyl)benzonitrile]
[4]; after grinding treatment for 10 minutes
  DSC peak: 158.26 °C
[4]; after heating treatment for 3 hours at 80° C.
  DSC peak: 158.17 °C
[4]; after pressing treatment
  DSC peak: 158.33 °C
[5]; 40° C., day 0
  purity as detected by HPLC: 99.93%
[5]; 40° C., day 5
  purity as detected by HPLC: 99.91%
[5]; 40° C., day 10
  purity as detected by HPLC: 99.91%
[5]; 60° C., day 0
  purity as detected by HPLC: 99.93%
[5]; 60° C., day 5
  purity as detected by HPLC: 99.92%
[5]; 60° C., day 10
  purity as detected by HPLC: 99.90%
[5]; Lighting (4500 Lux), day 0
  purity as detected by HPLC: 99.93%
[5]; Lighting (4500 Lux), day 5
  purity as detected by HPLC: 99.91%
[5]; Lighting (4500 Lux), day 10
  purity as detected by HPLC: 99.91%
[5]; RH 75%, day 0
  purity as detected by HPLC: 99.93%
[5]; RH 75%, day 5
  purity as detected by HPLC: 99.89%
[5]; RH 75%, day 10
  purity as detected by HPLC: 99.91%
[5]; RH 90%, day 0
  purity as detected by HPLC: 99.93%
[5]; RH 90%, day 5
  purity as detected by HPLC: 99.92%
[5]; RH 90%, day 10
  purity as detected by HPLC: 99.92%
[1]
  relative stability of crystal forms: more stable
[6]; 0 month
  Crystal form: Crystal form I
  Purity: 99.93%
[6]; 6 months
  Crystal form: Crystal form I
  Purity: 99.93%
[6]; 12 months
  Purity: 99.93%
[6]; 24 months
  Purity: 99.93%
[6]; 36 months
  Crystal form: Crystal form I
  Purity: 99.94%
  long-term storage stability: stable after placing under such conditions for 36 months

## CC1(C)C(=O)N(c2ccc(C#N)c(C(F)(F)F)c2)C(=S)N1c1ccc(OC[C@@H](O)CO)cc1 [compound of formula (I), (S)-4-(3-(4-(2,3-dihydroxypropoxy)phenyl)-4,4-methyl-5-carbonyl-2-thioimidazolin-1-yl)-2-(trifluoromethyl)benzonitrile]
[7]
  ratio of drug concentration in brain tissue to drug concentration in plasma: much lower than that of MDV-3100
[8]
  activity in vitro: slightly better than that of MDV-3100
[9]; at 3 μM
  AR agonist activity: no AR agonist activity
[9]; at 10 μM
  AR agonist activity: no AR agonist activity
[10]
  pIC50: < 4.30
[11]
  in vivo exposure: comparable to that of MDV-3100
[12]
  pIC50: 4.61
[13]
  in vivo exposure: more than six times that of MDV-3100
